# Laboratory results from publication PMC8762745 (ACS Medicinal Chemistry Letters, 2021).
# Target: T1, human TAAR1 receptor (Homo sapiens, UniProt Q96RJ0)
# T1 sequence (Q96RJ0 1-339): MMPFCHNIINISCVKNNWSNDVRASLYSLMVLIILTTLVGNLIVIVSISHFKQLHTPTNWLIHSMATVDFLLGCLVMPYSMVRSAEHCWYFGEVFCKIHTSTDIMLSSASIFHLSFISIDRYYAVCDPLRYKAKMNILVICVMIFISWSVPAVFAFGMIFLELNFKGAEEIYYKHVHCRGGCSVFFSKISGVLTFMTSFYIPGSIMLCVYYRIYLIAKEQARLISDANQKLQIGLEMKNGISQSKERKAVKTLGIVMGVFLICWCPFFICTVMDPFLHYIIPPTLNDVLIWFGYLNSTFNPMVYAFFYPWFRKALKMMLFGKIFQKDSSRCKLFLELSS
# Experiment: Human TAAR1 agonist assay
# Conditions: for fold less active for TAAR1 than β-PEA (2): EC50 ratio versus β-PEA (2); for fold less potent for TAAR1 than racemic ulotaront 20: EC50 ratio versus racemic ulotaront 20
smiles,measurement,setting,value
"NCCc1ccc(O)cc1 [compound 4, p-tyramine, reference compound]",fold less active for TAAR1 than β-PEA (2),,about 5 fold
CNC[C@]1(C)OCCc2ccsc21 [compound 21],fold less potent for TAAR1 than ulotaront,,> 1000 fold
"NC[C@H](O)c1ccc(O)cc1 [6a, (−)-octopamine, reference compound]",fold less active for TAAR1 than p-tyramine (4),,21 fold
"CNC[C@H](O)c1ccc(O)cc1 [7a, (−)-synephrine, reference compound]",fold reduced TAAR1 activity compared to 6a,EC50 ratio versus (−)-octopamine 6a,approximately 3 fold
"NCCc1c[nH]c2ccccc12 [compound 10, tryptamine, reference compound]",fold less active for TAAR1 than β-PEA (2),,about 150 fold
CNCC1OCCCc2ccsc21 (stereo not shown) [compound 26],fold less potent for TAAR1 than racemic ulotaront 20,,approximately 6 fold
"NC[C@@H](O)c1ccc(O)cc1 [6b, (+)-octopamine, reference compound]",fold less active for TAAR1 than p-tyramine (4),,54 fold
c1cc2c(s1)[C@H](CN1CCCC1)OCC2 [compound 24],fold less potent for TAAR1 than ulotaront,,189 fold
NCC1OCCCc2ccsc21 (stereo not shown) [compound 27],fold more potent for TAAR1 compared to 26,EC50 ratio versus 26,about 5 fold
NCC[C@@H]1OCCc2ccsc21 [compound 25],fold reduced TAAR1 activity compared to N-demethylated analogue 22,EC50 ratio versus 22,67 fold
NC[C@@H]1OCCc2ccsc21 [compound 22],fold more potent for TAAR1 than ulotaront,,about 11 fold
"CNCCc1ccccc1 [compound 3, N-methylphenethylamine, reference compound]",fold less active for TAAR1 than β-PEA (2),,approximately 10 fold
CNCC1OCCc2cscc21 (stereo not shown) [compound 28],fold less potent for TAAR1 than racemic ulotaront 20,,~6 fold
"NCCc1cccs1 [compound 30, thiophen-2-ylethanamine]",fold more potent for TAAR1 than the other ring opened thiophene (31),EC50 ratio versus 31,approximately 3 fold
"NCCc1cccc(O)c1 [compound 5, m-tyramine, reference compound]",fold less active for TAAR1 than β-PEA (2),,~23 fold
CNC[C@@H]1OCCc2sccc21 [compound 29],fold less potent for TAAR1 than ulotaront,,3 fold
